Biological target: PI3Kβ (Homo sapiens (Human), UniProt P42338)
Test: TR-FRET enzymatic activity assay, PI3Kβ
Format: biochemical
Conditions: 2× Km ATP, 2 μM PIP2, 30 minutes at 25° C., read-out: IC50-PIP-Beta
Procedure: The compounds of formula (I) were characterized for their enzymatic activity against the PI3K isoforms. The activities were measured using a time-resolved fluorescence resonance energy transfer (TR-FRET) assay. TR-FRET monitored the formation of 3,4,5-inositol triphosphate molecule that competed with fluorescently labeled PIPS for binding to the GRP-1 pleckstrin homology domain protein.
Class I PI3K isoforms were expressed and purified as heterodimeric recombinant proteins. All assay reagents and buffers for the TR-FRET assay were purchased from Millipore. […] The compounds were added to the assay solution and incubated for 30 minutes at 25° C.

Sequence of PI3Kβ (P42338 whole entry): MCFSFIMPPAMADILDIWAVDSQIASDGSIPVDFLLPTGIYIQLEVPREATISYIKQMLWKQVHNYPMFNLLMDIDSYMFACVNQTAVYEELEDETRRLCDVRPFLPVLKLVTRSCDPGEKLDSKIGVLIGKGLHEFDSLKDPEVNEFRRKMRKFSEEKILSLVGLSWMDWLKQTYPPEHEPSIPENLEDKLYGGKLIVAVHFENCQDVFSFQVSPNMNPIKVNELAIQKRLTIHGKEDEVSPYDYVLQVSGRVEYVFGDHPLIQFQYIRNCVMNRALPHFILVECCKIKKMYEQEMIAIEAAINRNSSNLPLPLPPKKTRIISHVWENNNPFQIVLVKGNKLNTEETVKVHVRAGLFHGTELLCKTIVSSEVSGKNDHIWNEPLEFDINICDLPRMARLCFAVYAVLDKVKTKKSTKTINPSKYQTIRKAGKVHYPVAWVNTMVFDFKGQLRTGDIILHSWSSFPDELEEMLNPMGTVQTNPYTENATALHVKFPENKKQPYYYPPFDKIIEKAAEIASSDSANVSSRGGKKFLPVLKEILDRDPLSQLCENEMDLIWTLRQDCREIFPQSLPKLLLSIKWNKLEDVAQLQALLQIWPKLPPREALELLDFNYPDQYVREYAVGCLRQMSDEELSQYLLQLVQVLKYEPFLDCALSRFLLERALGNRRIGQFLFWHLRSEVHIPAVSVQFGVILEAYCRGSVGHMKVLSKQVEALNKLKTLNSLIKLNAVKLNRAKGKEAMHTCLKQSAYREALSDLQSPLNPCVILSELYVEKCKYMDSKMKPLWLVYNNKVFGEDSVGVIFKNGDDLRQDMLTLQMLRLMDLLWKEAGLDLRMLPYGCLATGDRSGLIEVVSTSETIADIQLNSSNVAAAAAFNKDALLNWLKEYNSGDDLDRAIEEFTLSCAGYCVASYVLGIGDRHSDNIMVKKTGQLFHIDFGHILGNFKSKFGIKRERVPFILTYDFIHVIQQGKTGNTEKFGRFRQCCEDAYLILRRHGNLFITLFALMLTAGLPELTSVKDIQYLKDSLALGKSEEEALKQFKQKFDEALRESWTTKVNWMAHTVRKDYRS
Sequence of PI3Kβ (P27986 whole entry partner): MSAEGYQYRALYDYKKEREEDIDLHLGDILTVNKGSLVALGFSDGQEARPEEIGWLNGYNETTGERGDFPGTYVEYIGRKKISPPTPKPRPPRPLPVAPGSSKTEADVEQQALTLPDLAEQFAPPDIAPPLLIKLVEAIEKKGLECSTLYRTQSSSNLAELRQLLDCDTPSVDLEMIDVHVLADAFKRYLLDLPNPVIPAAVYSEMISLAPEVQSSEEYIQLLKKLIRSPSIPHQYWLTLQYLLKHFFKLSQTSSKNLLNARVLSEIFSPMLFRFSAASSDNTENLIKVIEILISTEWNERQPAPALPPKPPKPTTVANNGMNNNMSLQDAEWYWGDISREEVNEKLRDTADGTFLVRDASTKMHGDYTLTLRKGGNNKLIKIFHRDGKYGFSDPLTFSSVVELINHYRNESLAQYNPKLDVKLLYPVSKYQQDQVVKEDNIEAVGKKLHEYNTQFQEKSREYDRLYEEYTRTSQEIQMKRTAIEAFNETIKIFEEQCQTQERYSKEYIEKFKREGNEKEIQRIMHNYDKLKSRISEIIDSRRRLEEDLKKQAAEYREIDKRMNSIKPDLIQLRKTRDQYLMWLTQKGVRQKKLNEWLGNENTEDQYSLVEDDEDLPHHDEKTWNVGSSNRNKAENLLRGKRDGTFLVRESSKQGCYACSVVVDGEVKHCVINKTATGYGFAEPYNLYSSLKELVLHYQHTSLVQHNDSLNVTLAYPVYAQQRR

Row | SMILES | IC50 [nM]
1 | Cc1nccc(-c2cc(-c3nnc[nH]3)c3nc(C)n(-c4ccnc5c(F)ccc(F)c45)c3c2)n1 [Example 156, 5,8-difluoro-4-(2-methyl-6-(2-methylpyrimidin-4-yl)-4-(4H-1,2,4-triazol-3-yl)-1H-benzo[d]imidazol-1-yl)quinoline] | 12
2 | Cc1nnc(-c2cc(-c3ccnc(N)c3F)cc3c2nc(C)n3-c2ccnc3c(Cl)ccc(F)c23)[nH]1 (single isomer, unassigned) [Example 111, 4-[3-(8-chloro-5-fluoroquinolin-4-yl)-2-methyl-7-(5-methyl-4H-1,2,4-triazol-3-yl)benzimidazol-5-yl]-3-fluoropyridin-2-amine] | 2500
3 | Cc1nnc(-c2cc(-c3ccnc(N)c3F)cc3c2nc(C)n3-c2ccnc3c(Cl)ccc(F)c23)[nH]1 [Example 98, 4-[3-(8-chloro-5-fluoroquinolin-4-yl)-2-methyl-7-(5-methyl-4H-1,2,4-triazol-3-yl)benzimidazol-5-yl]-3-fluoropyridin-2-amine] | 6
4 | Cc1c(-c2cc(-c3nnc[nH]3)c3nc(C)n(-c4ccnc5c(F)ccc(F)c45)c3c2)ccnc1F [Example 46, 5,8-difluoro-4-[6-(2-fluoro-3-methylpyridin-4-yl)-2-methyl-4-(4H-1,2,4-triazol-3-yl)benzimidazol-1-yl]quinoline] | 1100
5 | Cc1nc2c(-c3nnc[nH]3)cc(-c3cc(N)ncn3)cc2n1-c1ccnc2c(Cl)cccc12 [Example 59, 6-[3-(8-chloroquinolin-4-yl)-2-methyl-7-(4H-1,2,4-triazol-3-yl)benzimidazol-5-yl]pyrimidin-4-amine] | 270
6 | Cc1cc(-c2cc(-c3nnc[nH]3)c3nc(C)n(-c4ccnc5c(F)ccc(F)c45)c3c2)cc(N)n1 [Example 90, 4-[3-(5,8-difluoroquinolin-4-yl)-2-methyl-7-(4H-1,2,4-triazol-3-yl)benzimidazol-5-yl]-6-methylpyridin-2-amine] | 340
7 | Cc1nc2c(-c3nnc[nH]3)cc(-c3ccnc(N)c3F)cc2n1-c1ccnc2c(Cl)ccc(Cl)c12 [Example 161, 4-(1-(5,8-dichloroquinolin-4-yl)-2-methyl-4-(4H-1,2,4-triazol-3-yl)-1H-benzo[d]imidazol-6-yl)-3-fluoropyridin-2-amine] | 6
8 | CC(C)c1nc2c(-c3nnc[nH]3)cc(-c3ccnc(N)c3)cc2n1-c1ccnc2c(Cl)ccc(F)c12 [Example 67, 4-[3-(8-chloro-5-fluoroquinolin-4-yl)-2-propan-2-yl-7-(4H-1,2,4-triazol-3-yl)benzimidazol-5-yl]pyridin-2-amine] | 8
9 | CCc1nc2c(-c3nnc[nH]3)cc(-c3ccnc(N)c3)cc2n1-c1ccnc2c(F)ccc(F)c12 [Example 70, 4-[3-(5,8-difluoroquinolin-4-yl)-2-ethyl-7-(4H-1,2,4-triazol-3-yl)benzimidazol-5-yl]pyridin-2-amine] | 13
10 | Cc1nc2c(C(=O)O)cc(-c3ccncc3)cc2n1-c1ccnc2c(Cl)cccc12 [Example 1] | 34
11 | Cc1cc(-c2cc(-c3nnc[nH]3)c3nc(C)n(-c4ccnc5c(F)ccc(F)c45)c3c2)ccn1 (single isomer, unassigned) [Example 142, 5,8-difluoro-4-(2-methyl-6-(2-methylpyridin-4-yl)-4-(4H-1,2,4-triazol-3-yl)-1H-benzo[d]imidazol-1-yl)quinoline] | 11
12 | Cc1nnc(-c2cc(-c3ccnc(N)c3)cc3c2nc(C)n3-c2ccnc3c(Cl)cccc23)[nH]1 [Example 49, 4-[3-(8-chloroquinolin-4-yl)-2-methyl-7-(5-methyl-4H-1,2,4-triazol-3-yl)benzimidazol-5-yl]pyridin-2-amine] | 170
13 | Cc1nc2c(C(=O)O)cc(-c3ccnc(N)c3F)cc2n1-c1ccnc2c(F)ccc(F)c12 [Example 4, 6-(2-amino-3-fluoropyridin-4-yl)-1-(5,8-difluoroquinolin-4-yl)-2-methyl-1H-benzo[d]imidazole-4-carboxylic acid] | 20
14 | Cc1nc2c(-c3nnc[nH]3)cc(-c3ccncc3)cc2n1-c1ccnc2c(F)ccc(F)c12 [Example 28, 5,8-difluoro-4-[2-methyl-6-pyridin-4-yl-4-(4H-1,2,4-triazol-3-yl)benzimidazol-1-yl]quinoline] | 6
15 | Clc1cccc2c(-n3c(C4COC4)nc4c(-c5nnc[nH]5)cc(-c5ccncc5)cc43)ccnc12 [Example 36, 8-chloro-4-[2-(oxetan-3-yl)-6-pyridin-4-yl-4-(4H-1,2,4-triazol-3-yl)benzimidazol-1-yl]quinoline] | 250
16 | Cc1cccc2nccc(-n3c(C)nc4c(C(N)=O)cc(-c5ccncc5)cc43)c12 [Example 9, 2-methyl-1-(5-methylquinolin-4-yl)-6-pyridin-4-ylbenzimidazole-4-carboxamide] | 950

Row | SMILES | IC50 [nM]
17 | Cc1nc2c(-c3nnc[nH]3)cc(-c3ccnc(C#N)c3)cc2n1-c1ccnc2c(F)ccc(Cl)c12 (single isomer, unassigned) [Example 124, 4-(1-(5-chloro-8-fluoroquinolin-4-yl)-2-methyl-4-(4H-1,2,4-triazol-3-yl)-1H-benzo[d]imidazol-6-yl)picolinonitrile] | 160
18 | Cc1nc2c(C(N)=O)cc(-c3ccnc(N)c3)cc2n1-c1ccnc2c(Cl)cccc12 [Example 23, 6-(2-aminopyridin-4-yl)-1-(8-chloroquinolin-4-yl)-2-methyl-1H-benzo[d]imidazole-4-carboxamide] | 96
19 | Cc1nc2c(C(N)=O)cc(-c3cc(N)nc(N)n3)cc2n1-c1ccnc2c(Cl)cccc12 [Example 22, 1-(8-chloroquinolin-4-yl)-6-(2,6-diaminopyrimidin-4-yl)-2-methylbenzimidazole-4-carboxamide] | 1100
20 | Cc1nc2c(-c3nnc[nH]3)cc(-c3ccnc(N)c3F)cc2n1-c1c(Cl)cnc2c(F)cccc12 (single isomer, unassigned) [Example 108, 4-[3-(3-chloro-8-fluoroquinolin-4-yl)-2-methyl-7-(4H-1,2,4-triazol-3-yl)benzimidazol-5-yl]-3-fluoropyridin-2-amine] | 810
21 | Cc1nc2c(-c3nnc[nH]3)cc(-c3ccnc(N)c3F)cc2n1-c1ccnc2cc(F)cc(F)c12 [Example 160, 4-(1-(5,7-difluoroquinolin-4-yl)-2-methyl-4-(4H-1,2,4-triazol-3-yl)-1H-benzo[d]imidazol-6-yl)-3-fluoropyridin-2-amine] | 7
22 | Cc1nnc(-c2cc(-c3ccncc3)cc3c2nc(C)n3-c2ccnc3c(F)ccc(F)c23)[nH]1 [Example 33, 5,8-difluoro-4-[2-methyl-4-(5-methyl-4H-1,2,4-triazol-3-yl)-6-pyridin-4-ylbenzimidazol-1-yl]quinoline] | 110
23 | Cc1cc(-n2c(C)nc3c(-c4nnc[nH]4)cc(-c4ccncc4)cc32)c2cccc(Cl)c2n1 [Example 32, 8-chloro-2-methyl-4-[2-methyl-6-pyridin-4-yl-4-(4H-1,2,4-triazol-3-yl)benzimidazol-1-yl]quinoline] | 6
24 | Cc1nc2c(-c3nnc[nH]3)cc(-c3ccnc(C#N)c3)cc2n1-c1ccnc2cccc(F)c12 (single isomer, unassigned) [Example 132, 4-(1-(5-fluoroquinolin-4-yl)-2-methyl-4-(4H-1,2,4-triazol-3-yl)-1H-benzo[d]imidazol-6-yl)picolinonitrile] | 54
25 | Nc1cc(-c2cc(-c3nnc[nH]3)c3nc(CC4CC4)n(-c4ccnc5c(Cl)cccc45)c3c2)ccn1 [Example 73, 4-[3-(8-chloroquinolin-4-yl)-2-(cyclopropylmethyl)-7-(4H-1,2,4-triazol-3-yl)benzimidazol-5-yl]pyridin-2-amine] | 8
26 | Cc1nc2c(-c3nnc[nH]3)cc(-c3ccnc(N)c3F)cc2n1-c1ccnc2cc(F)cc(F)c12 (single isomer, unassigned) [Example 117] | 4
27 | CCc1nc2c(-c3nnc[nH]3)cc(-c3ccnc(N)c3F)cc2n1-c1ccnc2c(F)ccc(F)c12 (single isomer, unassigned) [Example 109, 4-[3-(5,8-difluoroquinolin-4-yl)-2-ethyl-7-(4H-1,2,4-triazol-3-yl)benzimidazol-5-yl]-3-fluoropyridin-2-amine] | 2600
28 | Cc1nc2c(-c3nnc[nH]3)cc(-c3ccnc(C#N)c3)cc2n1-c1ccnc2cccc(F)c12 [Example 147, 4-(1-(5-fluoroquinolin-4-yl)-2-methyl-4-(4H-1,2,4-triazol-3-yl)-1H-benzo[d]imidazol-6-yl)picolinonitrile] | 4
29 | Cc1nc2c(-c3nnc[nH]3)cc(-c3c(F)cnc(N)c3F)cc2n1-c1ccnc2c(F)ccc(F)c12 [Example 100, 4-[3-(5,8-difluoroquinolin-4-yl)-2-methyl-7-(4H-1,2,4-triazol-3-yl)benzimidazol-5-yl]-3,5-difluoropyridin-2-amine] | 320
30 | Cc1nc2c(-c3nnc[nH]3)cc(-c3ccnc(C#N)c3)cc2n1-c1ccnc2cc(F)cc(F)c12 [Example 143, 4-(1-(5,7-difluoroquinolin-4-yl)-2-methyl-4-(4H-1,2,4-triazol-3-yl)-1H-benzo[d]imidazol-6-yl)picolinonitrile] | 6
31 | Cc1nc2c(-c3nnc[nH]3)cc(-c3ccnc(N)c3)cc2n1-c1ccnc2c(Cl)cccc12 [Example 58, 4-(1-(8-chloroquinolin-4-yl)-2-methyl-4-(4H-1,2,4-triazol-3-yl)-1H-benzo[d]imidazol-6-yl)pyridin-2-amine] | 10
32 | Cc1cc(-c2cc(-c3nnc[nH]3)c3nc(C)n(-c4ccnc5c(F)ccc(F)c45)c3c2)ncn1 [Example 155, 5,8-difluoro-4-(2-methyl-6-(6-methylpyrimidin-4-yl)-4-(4H-1,2,4-triazol-3-yl)-1H-benzo[d]imidazol-1-yl)quinoline] | 62
